The values below come from PubChem BioAssay (NCI).

Some test systems named below: NCI-H460 lung; 786-0 renal; SR leukemia; HCT-15 colon; SF-539 CNS; M14 melanoma; HCC-2998 colon; CCRF-CEM leukemia; A498 renal.
Holding throughout (assay): growth of human tumour cells (NCI), 48 h

Values joined by “and” are separate entries in the source; they are usually repeats but may differ in a detail not shown here. Equal entries are not always repeated.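 Following 48 hours of exposure in 96-well plates, responses at five concentrations were used to interpolate endpoints linearly. Abbreviation: GI50, concentration required for 50% inhibition of growth. The concentration for full growth arrest is given as TGI.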 Some results are limits rather than exact numbers.

For `c1ccc2c(c1)SCCCS2`, the TGI in the assay with NCI-H460 lung, in the assay with 786-0 renal, with SR leukemia, in the assay on HCT-15 colon, in the assay on SF-539 CNS and in the assay on M14 melanoma was over 100 µM each time. Besides, the TGI with HCC-2998 colon and with CCRF-CEM leukemia was over 100 µM each time.

As to `COc1cc(C)c(CC/C(C)=C/Cc2cc(O)ccc2O)c(C)c1C`, the TGI in the assay with NCI-H460 lung, in the assay with 786-0 renal, in the assay with SR leukemia, in the assay on HCT-15 colon, with A498 renal and in the assay on SF-539 CNS was over 25 µM in each case. The TGI in the assay with M14 melanoma, in the assay with HCC-2998 colon and with CCRF-CEM leukemia was over 25 µM each time.

As for `CN(C)c1nc(Oc2nc(N(C)C)nc(N(C)C)n2)nc(N(C)C)n1`, the TGI in the assay on NCI-H460 lung, in the assay on 786-0 renal, with SR leukemia, in the assay with HCT-15 colon, with A498 renal and in the assay with SF-539 CNS was over 100 µM throughout. Besides, the TGI in the assay with M14 melanoma, in the assay on HCC-2998 colon and in the assay with CCRF-CEM leukemia was over 100 µM in each case.

`CN(C)C(=O)C(F)(F)C(c1ccc(F)cc1)C1C(=O)N(C)C(=O)N(C)C1=O` (configuration not stated): the TGI in the assay with NCI-H460 lung, with 786-0 renal, with HCT-15 colon, with A498 renal, with M14 melanoma and with HCC-2998 colon was over 100 µM in each case. Besides, the TGI in the assay on CCRF-CEM leukemia was over 100 µM.

In the case of `Cc1nc2ccccc2nc1CC(=O)C(=O)Nc1ccc(Cl)cc1Cl`, the TGI with NCI-H460 lung, in the assay with 786-0 renal, in the assay with HCT-15 colon, in the assay with A498 renal, with SF-539 CNS and with M14 melanoma was over 100 µM in each case. Also, the TGI in the assay with HCC-2998 colon and in the assay on CCRF-CEM leukemia was over 100 µM each time.

For `c1c[nH]c(-c2cccc3nsnc23)c1`, the TGI with NCI-H460 lung, with 786-0 renal, in the assay with SR leukemia, in the assay on HCT-15 colon, with A498 renal and in the assay on SF-539 CNS was over 100 µM throughout. In addition, the TGI in the assay with M14 melanoma, in the assay with HCC-2998 colon and in the assay with CCRF-CEM leukemia was over 100 µM in each case.

In the case of `C[C@]12CCC3[C@@H](CCC45OC4C(=O)CC[C@]35C)C1Cc1cnn(-c3ccc(F)cc3)c1N2` (some centres not stated), the TGI was over 100 µM with NCI-H460 lung; 35.2 µM with 786-0 renal; over 100 µM in the assay on SR leukemia; 33.9 µM with HCT-15 colon; over 100 µM with M14 melanoma; over 100 µM in the assay on CCRF-CEM leukemia.

For `O=[N+]([O-])c1cccc(C2=NN(c3ccccc3)C3c4cc(Br)ccc4OCC23)c1` (configuration not stated), the TGI in the assay with NCI-H460 lung, with 786-0 renal, in the assay with A498 renal, in the assay with SF-539 CNS, in the assay on HCC-2998 colon and with CCRF-CEM leukemia was over 100 µM throughout.

Consider `O=[N+]([O-])c1ccc(C[P+]2(c3ccccc3)CCCCC2)cc1`, for which the TGI with NCI-H460 lung, with 786-0 renal, in the assay on SR leukemia, in the assay with HCT-15 colon, in the assay with A498 renal and in the assay with SF-539 CNS was over 100 µM each time. Further, the TGI in the assay with M14 melanoma, in the assay with HCC-2998 colon and with CCRF-CEM leukemia was over 100 µM throughout.

Consider `Cc1c2ccnc(C(N)=O)c2c(C)c2c1[nH]c1ccccc12`, for which the GI50 was 2.62 µM with NCI-H460 lung; 3.09 µM in the assay on A498 renal; 3.75 µM with SF-539 CNS; 4.67 µM with HCC-2998 colon; 3.64 µM in the assay on CCRF-CEM leukemia. For the same compound, the TGI in the assay with NCI-H460 lung was 16.2 µM and 13.7 µM; with 786-0 renal, 23.3 µM; with HCT-15 colon, 41.1 µM and > 100 µM; in the assay with A498 renal, 26.7 µM and 12.4 µM; with SF-539 CNS, 23.9 µM and 13.9 µM; in the assay with M14 melanoma, over 100 µM. The TGI in the assay with HCC-2998 colon was 50 µM and 19.4 µM; in the assay on CCRF-CEM leukemia, 46.6 µM and > 100 µM.

In the case of `CCCCCCCC(=O)OCC(COC(=O)C(C)(C)C)OC(=O)Cc1ccccc1` (configuration not stated), the TGI in the assay on NCI-H460 lung, with 786-0 renal, with HCT-15 colon, in the assay with A498 renal, in the assay with M14 melanoma and in the assay on HCC-2998 colon was over 100 µM throughout. For the same compound, in the assay with CCRF-CEM leukemia, the TGI is over 100 µM.

As for `CC1=NN(C(=O)Cc2ccccc2)C(=O)/C1=C\c1ccc(O)cc1`, the TGI in the assay with NCI-H460 lung, in the assay with 786-0 renal, with HCT-15 colon, in the assay on A498 renal, with SF-539 CNS and with M14 melanoma was over 100 µM in each case. Further, the TGI in the assay with HCC-2998 colon and in the assay with CCRF-CEM leukemia was over 100 µM each time.

As for `C[n+]1cc2cc(O)c(O)cc2c2ccc3cc(O)c(O)cc3c21`, the TGI in the assay with NCI-H460 lung was over 60.2 µM; in the assay on 786-0 renal, 9.21 µM; in the assay with SR leukemia, 9.53 µM; in the assay on HCT-15 colon it was over 34.2 µM; in the assay on A498 renal, 11.8 µM; in the assay with SF-539 CNS it was 7.77 µM. Moreover, the TGI in the assay with M14 melanoma was over 100 µM; with HCC-2998 colon it was over 57.6 µM; in the assay on CCRF-CEM leukemia, 6.17 µM.

`CCOC(=O)C1C(c2ccc(Cl)cc2Cl)NC(c2ccc(C)cc2)C(C(=O)OC)S1(=O)=O` (configuration not stated): the TGI with NCI-H460 lung, with 786-0 renal, in the assay on SR leukemia, with HCT-15 colon, in the assay with A498 renal and with SF-539 CNS was over 100 µM in each case. Further, the TGI in the assay with M14 melanoma, with HCC-2998 colon and in the assay on CCRF-CEM leukemia was over 100 µM in each case.

Take `Cn1nc(-c2ccc(S(=O)(=O)/N=C(\NN)Nc3ccc(Cl)cc3)s2)cc1C(F)(F)F`: the TGI in the assay with NCI-H460 lung turned out to be 37.9 µM; in the assay with 786-0 renal, 30.6 µM; in the assay with SR leukemia, 41.7 µM; with HCT-15 colon it was 47.5 µM; in the assay with A498 renal it was 31 µM; in the assay on SF-539 CNS, 30 µM. Besides, the TGI in the assay with M14 melanoma is 31.5 µM.

Take `Cc1c(N2CCOCC2)nc2ccc(Cl)cc2c1-c1ccccc1`: the TGI with NCI-H460 lung, with 786-0 renal, with SR leukemia, with HCT-15 colon, in the assay on A498 renal and in the assay on SF-539 CNS was over 100 µM each time. Also, the TGI with M14 melanoma, in the assay on HCC-2998 colon and with CCRF-CEM leukemia was over 100 µM in each case.

As to `COc1cc2ccc3c4cc(OC)c(OC)cc4c[n+](C)c3c2cc1O`, the TGI in the assay with NCI-H460 lung was over 86.7 µM; with 786-0 renal, over 100 µM; in the assay with HCT-15 colon it was over 100 µM; in the assay with A498 renal, over 48.1 µM; in the assay with SF-539 CNS, over 100 µM; with M14 melanoma it was over 100 µM. In addition, the TGI in the assay on HCC-2998 colon and in the assay with CCRF-CEM leukemia was over 100 µM each time.

For the compound `Cc1cc([N+](=O)[O-])c(C)c2c1[nH]c1ccc(Cl)cc12`, the TGI with NCI-H460 lung, in the assay on 786-0 renal, in the assay on SR leukemia, in the assay with HCT-15 colon, in the assay on SF-539 CNS and with M14 melanoma was over 100 µM in each case. The TGI in the assay with HCC-2998 colon and in the assay with CCRF-CEM leukemia was over 100 µM throughout.

Take `N#Cc1c(-c2ccc([N+](=O)[O-])cc2)cc(-c2ccc(Nc3ccnc4cc(Cl)ccc34)cc2)[nH]c1=O`: the TGI with NCI-H460 lung, with 786-0 renal, in the assay on SR leukemia, in the assay with HCT-15 colon, with A498 renal and in the assay on SF-539 CNS was over 100 µM throughout. For the same compound, the TGI in the assay on M14 melanoma and in the assay on HCC-2998 colon was over 100 µM each time.

Take `O=c1c(F)cn2c(=O)n1CCCCCCCn1c(=O)c(F)cn(c1=O)CCCCCCC2`: the TGI with NCI-H460 lung, in the assay with 786-0 renal, in the assay on SR leukemia, in the assay with HCT-15 colon, with A498 renal and in the assay on SF-539 CNS was over 100 µM throughout. In addition, the TGI in the assay on M14 melanoma, in the assay with HCC-2998 colon and in the assay with CCRF-CEM leukemia was over 100 µM throughout.

As for `COc1cc2nc(-c3ccc(Cl)cc3)cc(OCCCN3CCOCC3)c2cc1OC`, the GI50 in the assay on NCI-H460 lung was 0.958 µM; with SR leukemia, 0.414 µM; with A498 renal, 1.59 µM; in the assay on SF-539 CNS, 2.99 µM; in the assay with M14 melanoma, 0.545 µM; in the assay on CCRF-CEM leukemia, 3.35 µM. In addition, the TGI with NCI-H460 lung was over 100 µM; in the assay on SR leukemia, over 100 µM; in the assay on A498 renal, 4.02 µM; with SF-539 CNS it was over 100 µM; in the assay with M14 melanoma, 2.7 µM; in the assay with CCRF-CEM leukemia, over 100 µM.

As for `CN(C)CCn1c(=O)c2ccc(NCCCN(C)CCCNc3ccc4c(=O)n(CCN(C)C)c(=O)n5c6ccc(O)cc6c(=O)c3c45)c3c(=O)c4cc(O)ccc4n(c1=O)c23`, the TGI was 0.234 µM in the assay on NCI-H460 lung; 1.05 µM in the assay with 786-0 renal; 0.642 µM with SR leukemia; 3.41 µM with HCT-15 colon; 0.367 µM in the assay on A498 renal; 1.84 µM in the assay with SF-539 CNS. Besides, the TGI came to 0.805 µM in the assay on M14 melanoma, 0.173 µM with HCC-2998 colon and 0.13 µM with CCRF-CEM leukemia.
